Patent publication US6498125B2, “Pyridine ketones useful as herbicides” (Syngenta Participations AG, priority 1998, dated 2002)

Tests used:
[1] = test system: Monocotyledonous and dicotyledonous test plants; test: Example B2: post-emergence herbicidal action, 2 kg of AS/ha; assay type: in vivo; design: key: 1 = complete damage, 9 = no effect; conditions: 4- to 6-leaf stage, about 18 days; for post-emergence action rating, Avena: test plant Avena; for post-emergence action rating, Setaria: test plant Setaria; for post-emergence action rating, Sinapis: test plant Sinapis; for post-emergence action rating, Solanum: test plant Solanum; for post-emergence action rating, Stellaria: test plant Stellaria
Procedure: Monocotyledonous and dicotyledonous test plants are grown in plastic pots with standard soil in a greenhouse and, in the 4- to 6-leaf stage, are sprayed with an aqueous suspension of the test substances of the formula 1, prepared from a 25% wettable powder (Example F3, b) according to WO 97134485) or with an emulsion of the test substances of the formula I, prepared from a 25% emulsion concentrate (Example F1, c) according to WO 97/34485), corresponding to a dosage of 2 kg of AS/ha (500 l of water/ha). The test plants are then grown further under optimum conditions in a greenhouse. After a test period of about 18 days, the test is evaluated with a nine-level scale of rating (1=complete damage, 9=no effect). Ratings of 1 to 4 (in particular 1 to 3) mean good to very good herbicidal action. In this test, the compounds of the formula I show strong herbicidal action.

[2] = test system: Monocotyledonous and dicotyledonous test plants; test: Example B1: pre-emergence herbicidal action, 2 kg of AS/ha; assay type: in vivo; conditions: 3 weeks, scale 1-9; for pre-emergence action rating, Avena: test plant Avena; for pre-emergence action rating, Cyperus: test plant Cyperus; for pre-emergence action rating, Setaria: test plant Setaria; for pre-emergence action rating, Sinapis: test plant Sinapis; for pre-emergence action rating, Solanum: test plant Solanum; for pre-emergence action rating, Stellaria: test plant Stellaria
Procedure: Monocotyledonous and dicotyledonous test plants are sown in standard soil in plastic pots. Immediately after sowing, the test substances are sprayed on (500 l of water/ha) as an aqueous suspension (prepared from a 25% wettable powder (Example F3, b) according to WO 97/34485) or emulsion (prepared from a 25% emulsion concentrate (Example F1, c)), corresponding to a dosage of 2 kg of AS/ha. The test plants are then grown under optimum conditions in a greenhouse. After a test period of 3 weeks, the test is evaluated with a nine-level scale of ratings (1=complete damage, 9=no effect). Ratings of 1 to 4 (in particular 1 to 3) mean good to very good herbicidal action.

| SMILES | post-emergence action rating, Avena ([1]; scale 1-9) | post-emergence action rating, Setaria ([1]; scale 1-9) | post-emergence action rating, Sinapis ([1]; scale 1-9) | post-emergence action rating, Solanum ([1]; scale 1-9) | post-emergence action rating, Stellaria ([1]; scale 1-9) | pre-emergence action rating, Avena [2] | pre-emergence action rating, Cyperus [2] | pre-emergence action rating, Setaria [2] | pre-emergence action rating, Sinapis [2] | pre-emergence action rating, Solanum [2] | pre-emergence action rating, Stellaria [2] | post-emergence action rating, Avena ([1]; scale 1-9, listed as 1.010) | post-emergence action rating, Stellaria ([1]; scale 1-9, listed as 1.010) |
| --- | --- | --- | --- | --- | --- | --- | --- | --- | --- | --- | --- | --- | --- |
| CC(=O)OC1=C(C(=O)c2ccc(C(F)(F)F)nc2C)C(=O)C2CCC1C2 (stereo not shown) [Compound 1.401] | 2 | 2 | 2 | 2 | 2 | 2 | 1 | 1 | 2 | 1 | 2 |  |  |
| Cc1nc(C(F)(F)F)ccc1C(=O)C1=C(OC(=O)c2ccccc2)C2CCC(C2)C1=O (stereo not shown) [Compound 1.402] | 2 | 2 | 1 | 2 | 2 | 2 | 1 | 1 | 2 | 1 | 2 |  |  |
| COc1nc(C(F)(F)F)ccc1C(=O)C1=C(O)C2CCC(C2)C1=O (stereo not shown) [Compound 1.043] | 2 | 2 | 1 | 2 | 2 | 4 | 2 | 1 | 2 | 1 | 2 |  |  |
| Cc1nc(C(F)(F)C(F)(F)F)ccc1C(=O)C1=C(O)C2CCC(C2)C1=O (stereo not shown) [Compound 1.109] | 2 | 2 | 1 | 2 | 2 | 2 | 2 | 2 | 2 | 1 | 3 |  |  |
| Cc1nc(C(F)(F)F)ccc1C(=O)C1=C(OC(=O)C2CC2)C2CCC(C2)C1=O (stereo not shown) [Compound 1.403] | 2 | 2 | 1 | 2 | 2 | 2 | 1 | 1 | 1 | 1 | 2 |  |  |
| Cc1nc(C(F)(F)Cl)ccc1C(=O)C1=C(O)C(C)(C)ON(C)C1=O [Compound 4.124] | 2 | 2 | 1 | 1 | 2 | 2 | 1 | 2 | 2 | 1 | 2 |  |  |
| O=C(C1=C(O)C2CCC(C2)C1=O)c1ccc(C(F)(F)F)nc1 (stereo not shown) [Compound 1.01] |  | 2 | 1 | 2 |  | 2 | 1 | 1 | 1 | 1 | 2 | 2 | 4 |
| COCc1nc(C(F)(F)F)ccc1C(=O)C1=C(O)C(C)(C)ON(C)C1=O [Compound 4.021] | 2 | 2 | 1 | 1 | 2 | 2 | 1 | 2 | 2 | 1 | 2 |  |  |
| CC1=CC(C)(C)C(O)=C(C(=O)c2ccc(C(F)(F)F)nc2C)C1=O [Compound 5.008] | 2 | 3 | 1 | 1 | 2 | 2 | 1 | 1 | 2 | 1 | 2 |  |  |
| Cc1nc(C(F)(F)F)ccc1C(=O)C1=C(O)C(C)(C)ON(C)C1=O [Compound 4.009] | 1 | 1 | 1 | 1 | 1 | 1 | 2 | 1 | 2 | 1 | 3 |  |  |
| Cc1cc(C(=O)C2=C(O)C3CCC(C3)C2=O)c(C)nc1C(F)(F)F (stereo not shown) [Compound 1.313] | 2 | 2 | 1 | 2 | 2 | 3 | 1 | 2 | 1 | 1 | 2 |  |  |
| Cc1nc(C(F)(F)C(F)(F)C(F)(F)C(F)(F)F)ccc1C(=O)C1=C(O)C2CCC(C2)C1=O (stereo not shown) [Compound 1.411] | 2 | 2 | 1 | 2 | 2 | 3 | 2 | 1 | 2 | 1 | 2 |  |  |
| Cc1nc(C(F)(F)F)ccc1C(=O)C1=C([O-])C2CCC(C2)C1=O.[K+] (stereo not shown) [Compound 1.376] | 1 | 2 | 1 | 2 | 2 | 2 | 1 | 1 | 2 | 1 | 2 |  |  |
| CCN(CC)C(=O)OC1=C(C(=O)c2ccc(C(F)(F)F)nc2C)C(=O)C2CCC1C2 (stereo not shown) [Compound 1.41] | 1 | 1 | 1 | 1 | 1 | 2 | 1 | 1 | 1 | 1 | 1 |  |  |
